Molecular target: T1, VSG221 (variant surface glycoprotein 221, MITat 1.2) (Trypanosoma brucei, UniProt P26332)
T1 construct: soluble form VSG (sVSG) purified from parental bloodstream forms, N-glycosylated (Asn263, Asn428)
Experiment: SPR (Biacore T200) on immobilized VSG221, […]; supported by HHA-FITC and CV-N-FITC competition on live parasites
Format: binding

Compound: CN[C@@H]1[C@H](O[C@@H]2O[C@H](CO)[C@@H](O)[C@H](OS(=O)(=O)O)[C@H]2O)[C@@H](O)[C@H](O[C@H]2c3cc(C)c(C(=O)N[C@H](C)C(=O)O)c(O)c3-c3c(cc4c(c3O)C(=O)c3cc(OC)cc(O)c3C4=O)[C@@H]2O)O[C@@H]1C [PRM-S, pradimicin S]
- SPR (Biacore T200) on immobilized VSG221, 1.56 to 50 uM; supported by HHA-FITC a: A significant concentration-dependent binding to the parental Tb BSF VSG221-bound sensorchip was observed
